Tests used:
HEPG2 = experiment: Viability assay (CellTiter-Glo), HEPG2; format: cell-based, human; conditions: 120 μM, CellTiter-Glo
Procedure: (§1) The screen identified several compounds that reduced NO in activated microglia and macrophages. The tested compounds included achiral and chiral imidazodiazepines and benzodiazepines. In general, microglia were more sensitive to compound treatment with more pronounced reduction of NO than macrophages. […] Cell viability assays with HEK293 (kidney) and HepG2 (liver) cells were conducted in a concentration dependent manner. A limited number of compounds, such as GL-III-63, GL-III-76A, and GL-III-77, were toxic at 120 μM.
(§2) Viability assay. Human liver hepatocellular carcinoma (HEPG2) and human embryonic kidney 293T (HEK293T) cell lines were purchased (ATCC) and cultured in 75 cm^2 flasks (CellStar). Cells were grown in DMEM/High Glucose (Hyclone, #SH3024301) media to which non-essential amino acids (Hyclone, #SH30238.01), 10 mM HEPES (Hyclone, #SH302237.01), 5×10^6 units of penicillin and streptomycin (Hyclone, #SV30010), and 10% of heat inactivated fetal bovine serum (Gibco, #10082147) were added. Cells were harvested using 0.05% Trypsin (Hyclone, #SH3023601), washed with PBS, and dispensed into sterile white, optical bottom 384-well plates (NUNC, #142762). After three hours, small molecule DMSO solutions were transferred with a Tecan Freedom EVO liquid handling system equipped with a 100 nL pin tool (V&P Scientific). The controls were 3-dibutylamino-1-(4-hexyl-phenyl)-propan-1-one (25 mM in DMSO, positive control) and DMSO (negative control). The cells were incubated for 48 hours followed by the addition of CellTiter-Glo™, a luminescence-based cell viability assay (Promega, Madison, WI). All luminescence readings were performed on a Tecan Infinite M1000 plate reader. The assay was carried out in quadruplet with two independent runs. The data were analyzed by nonlinear regression.

Mouse microglia [1] = experiment: NO production (Griess assay), LPS/IFNγ-activated mouse microglia; format: cell-based; conditions: for Inhibition of NO production (%) Mouse microglia 10 μM / Inhibition of NO production (%) Mouse microglia 50 μM: 24 hours, 1 μM GABA, LPS/IFNγ; for inhibition at 50 µM / inhibition at 10 µM: Mus musculus, Microglia, 24 h
Procedure: (§3) Next, a library of GABAAR ligands was investigated to identify compounds that reduce the production of NO as a marker of anti-inflammatory activity. […] NO was quantified with a Greiss assay. Cell viability was determined with CellTiter-Glo.
Cell culture. A) HMC3 Microglia (CRL-3304) were maintained in treated cell culture flasks (Nunc, 156472) with EMEM (Corning, 10010CV) supplemented with 10% heat-inactivated FBS (Corning, 35011CV) and 100 U/mL penicillin and 100 μg/mL streptomycin (Hyclone, SV30010). Cultures were maintained at 37° C. and 5% CO2. When cells reached a density of 7×10^4 cells/mL, cultures were passaged with 0.25% Trypsin (Corning, 25-053-CI) and resuspended to a density no lower than 10,000 cells/mL. B) Human and mouse microglia cell lines were a gift from Dr. David Alvarez-Carbonell at Case Western Reserve University (Cleveland, OH). Microglia were cultured in cell culture treated flasks (Nunc, 156472) with DME/F12 media (Hyclone, SH30023.01) supplemented with 10% heat-inactivated FBS (Corning, 35011CV), 100 U/mL penicillin/100 μg/mL streptomycin (Hyclone, SV30010), and Normocin (Invivogen, ant-nr). Cultures were maintained at 37° C. and 5% CO2. […] Cultures were maintained at 37° C. and 5% CO2. Cells were passaged when they reached a density of approximately 3×10^6 cells/mL using cell scrapers (VWR, 10062-906) to lift cells from flask surface and resuspended at densities of approximately 500,000 cells/mL.
(§4) Nitric oxide production (Griess assay) and viability assay (CellTiter-Glo). 80 μL of mouse microglia culture (1×10^6 cells/mL) was plated into sterile 384 well plates representing non-activated wells. The remaining culture was activated with 50 ng/ml LPS (Invivogen, NC9836) and 150 U/mL IFNγ (R&D Systems, 485MI100) and distributed into the 384 well plates. […] Assay plates were incubated for approximately 24 hours (unless otherwise noted) at 37° C., centrifuged, and 40 μL of supernatant transferred to a new plate for analysis using the Griess Assay (Promega, Madison, WI). Absorbance at 530 nm was measured using a TECAN Infinite M1000 plate reader. The remaining 40 μL containing cells was analyzed for toxicity by the CellTiter-Glo Assay (Promega, Madison, WI). Luminescence was read using a TECAN Infinite M1000 plate reader.

RAW macrophages [2] = experiment: Cell viability (CellTiter-Glo), RAW macrophages; format: cell-based, mouse; conditions: CellTiter-Glo
RAW macrophages [3] = experiment: NO production (Griess assay), LPS/IFNγ-activated RAW264.7 macrophages; format: cell-based, mouse; conditions: for Inhibition of NO production (%) RAW macrophages 10 μM: 24 hours, 1 μM GABA, LPS/IFNγ
Mouse microglia [4] = experiment: Cell viability (CellTiter-Glo), mouse microglia; format: cell-based; conditions: 50 μM, CellTiter-Glo
Procedure: as §3, §4

HEK293 = experiment: Viability assay (CellTiter-Glo), HEK293; format: cell-based, human; conditions: 120 μM, CellTiter-Glo
Procedure: as §1, §2

MOR (μ opioid receptor) = biological target: T1, MOR (μ opioid receptor) (Homo sapiens, UniProt P35372); experiment: MOR radioligand binding ([3H]-DAMGO, HEK293 cell homogenates)
T1 construct: expressed in transfected cells; host or cells: HEK293
T1 sequence (P35372 whole entry, species assumed): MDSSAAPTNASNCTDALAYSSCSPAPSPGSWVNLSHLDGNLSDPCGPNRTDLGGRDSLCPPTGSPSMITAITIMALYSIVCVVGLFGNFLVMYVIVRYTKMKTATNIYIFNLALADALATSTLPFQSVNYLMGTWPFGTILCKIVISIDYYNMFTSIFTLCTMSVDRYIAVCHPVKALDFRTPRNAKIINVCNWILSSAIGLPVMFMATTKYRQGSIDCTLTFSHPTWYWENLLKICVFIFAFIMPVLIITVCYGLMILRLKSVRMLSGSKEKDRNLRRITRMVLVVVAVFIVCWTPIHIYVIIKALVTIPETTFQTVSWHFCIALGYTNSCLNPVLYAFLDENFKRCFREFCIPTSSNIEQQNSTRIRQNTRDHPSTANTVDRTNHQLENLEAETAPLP

KOR (κ opioid receptor) = biological target: T2, KOR (κ opioid receptor) (Homo sapiens, UniProt P41145); experiment: KOR radioligand binding ([3H]-U69593, HEK293 cell homogenates)
T2 construct: expressed in transfected cells; host or cells: HEK293 (stably transfected)
T2 sequence (P41145 whole entry): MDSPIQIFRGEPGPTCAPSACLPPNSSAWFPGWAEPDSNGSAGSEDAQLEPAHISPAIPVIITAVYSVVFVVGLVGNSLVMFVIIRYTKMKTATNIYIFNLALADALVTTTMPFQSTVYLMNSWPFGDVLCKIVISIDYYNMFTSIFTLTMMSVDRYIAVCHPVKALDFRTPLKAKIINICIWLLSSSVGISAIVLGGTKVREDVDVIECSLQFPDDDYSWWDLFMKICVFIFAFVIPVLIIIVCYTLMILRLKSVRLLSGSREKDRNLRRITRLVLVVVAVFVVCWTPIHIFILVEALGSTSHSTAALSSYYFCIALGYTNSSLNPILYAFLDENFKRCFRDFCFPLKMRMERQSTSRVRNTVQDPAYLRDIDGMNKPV

DOR (δ opioid receptor) = biological target: T3, DOR (δ opioid receptor) (Homo sapiens, UniProt P41143); experiment: DOR radioligand binding ([3H]-DADLE, HEK293 cell homogenates); conditions: Percent inhibition at 10,000 nM; [3H]-DADLE
T3 construct: expressed in transfected cells; host or cells: HEK293
T3 sequence (P41143 whole entry): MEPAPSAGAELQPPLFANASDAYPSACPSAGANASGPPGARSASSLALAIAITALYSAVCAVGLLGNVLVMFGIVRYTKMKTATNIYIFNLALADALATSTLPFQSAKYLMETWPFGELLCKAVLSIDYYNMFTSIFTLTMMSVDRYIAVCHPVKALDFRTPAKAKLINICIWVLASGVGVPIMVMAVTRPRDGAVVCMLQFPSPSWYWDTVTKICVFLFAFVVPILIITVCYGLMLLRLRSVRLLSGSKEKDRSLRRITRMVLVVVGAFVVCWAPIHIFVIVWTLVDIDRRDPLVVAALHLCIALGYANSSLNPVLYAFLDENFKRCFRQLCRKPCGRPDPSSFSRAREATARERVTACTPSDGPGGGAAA

[5] = tested on: BZR (benzodiazepine site of GABAAR); experiment: GABAAR/BZR binding, rat brain homogenate with 3H-flunitrazepam; conditions: rat brain homogenate, 3H-flunitrazepam; for BZR %: Percent inhibition at 10,000 nM
Summary of the method: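 Rat brain homogenate incubated with 3H-flunitrazepam near its Kd, typically 90 min at room temperature in the dark; nonspecific binding defined with 10 μM reference compound. Filtration on PEI-soaked mats, scintillation counting; compounds screened at 10,000 nM, those above 50% displacement taken to concentration–response for Ki by nonlinear regression (n=6).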

[6] = Percent inhibition at 10,000 nM, [3H]-DAMGO
[7] = Percent inhibition at 10,000 nM, [3H]-U69593

Compound	Cell viability (%) HEPG2 120 μM (HEPG2) [%]	Inhibition of NO production (%) Mouse microglia 10 μM (Mouse microglia [1]) [%]	Cell viability (%) RAW macrophages 50 μM (RAW macrophages [2]) [%]	Inhibition of NO production (%) RAW macrophages 10 μM (RAW macrophages [3]) [%]	Cell viability (%) Mouse microglia 50 μM (Mouse microglia [4]) [%]	Cell viability (%) HEK293 120 μM (HEK293) [%]	inhibition at 10 µM (MOR (μ opioid receptor); [6]) [%]	inhibition at 10 µM (KOR (κ opioid receptor); [7]) [%]	inhibition at 10 µM (DOR (δ opioid receptor)) [%]	BZR % [5] [%]	Ki [5] [nM]	other results
C#Cc1ccc2c(c1)C(c1ccccc1)=NCc1c(C(=O)OCCCO)ncn1-2 [GL-I-48]	100 ± 4	0 ± 4	100 ± 12	4 ± 2	78 ± 5	65 ± 8	–	–	–	–	–	–
CC1N=C(c2ccccc2F)c2cc(Br)ccc2-n2cnc(C=O)c21 (centres unmarked) [GL-III-35]	98 ± 8	17 ± 7	100 ± 2	0 ± 4	100 ± 8	79 ± 8	–	–	–	–	–	–
C#Cc1ccc2c(c1)C(c1ccccc1F)=N[C@@H](C)C(=O)N2 [GL-I-64]	100 ± 9	24 ± 3	100 ± 5	3 ± 3	81 ± 5	77 ± 13	–	–	–	–	–	–
CCNC(=O)c1ncn2c1[C@@H](C)N=C(c1ccccc1F)c1cc(Br)ccc1-2 [GL-III-67]	100 ± 9	33 ± 1	100 ± 7	4 ± 2	85 ± 10	66 ± 6	–	–	–	–	–	–
C#Cc1ccc2c(c1)C(c1ccccn1)=N[C@H](C)c1c(-c3nc(CC)no3)ncn1-2 [GL-II-54]	–	–	100 ± 8	–	95 ± 3	–	0	80	0	66	2040	inhibition at 50 µM (Mouse microglia [1]): 0%; Ki (KOR (κ opioid receptor)): 504 nM
C#Cc1ccc2c(c1)C(c1ccccn1)=N[C@H](C)c1c(C(=O)OC)ncn1-2 [GL-II-32]	–	–	100 ± 4	–	95 ± 8	80 ± 6	32	35	0	63	1430	inhibition at 10 µM (Mouse microglia [1]): 7 ± 2%; inhibition at 10 µM (RAW macrophages [3]; Mus musculus, Macrophage, 24 h): 6 ± 3%
C#Cc1ccc2c(c1)C(c1ccccn1)=N[C@H](C)c1c(C(=O)OCC)ncn1-2 [GL-II-19]	100 ± 9	–	–	–	100 ± 11	90 ± 5	17	44	2	71	1140	inhibition at 10 µM (Mouse microglia [1]): 32 ± 4%; inhibition at 10 µM (RAW macrophages [3]; Mus musculus, Macrophage, 24 h): 2 ± 2%
C#Cc1ccc2c(c1)C(c1ccccn1)=NC(C)c1c(-c3nc(C)no3)ncn1-2 (centres unmarked) [GL-II-33]	–	–	100 ± 7	–	100 ± 4	–	–	–	–	–	–	Inhibition of NO production (%) Mouse microglia 50 μM (Mouse microglia [1]): 0 ± 3%; NO production of activated microglia (in words) (Mouse microglia [1]; dexamethasone 100 nM, GABA 1 μM, MP-IV-010 50 μM, GL-II-33 in the library screen): did not reduce NO production
C#Cc1ccc2c(c1)C(c1ccccn1)=NCc1c(C(=O)O)ncn1-2 [GL-III-13]	100 ± 10	–	100 ± 9	0 ± 2	92 ± 9	74 ± 5	–	–	–	–	–	–
C#Cc1ccc2c(c1)C(c1ccccc1)=NCc1c(C(=O)NC)ncn1-2 [YT-III-31]	100 ± 7	–	–	–	100 ± 8	96 ± 10	–	–	–	–	–	Inhibition of NO production (%) Mouse microglia 50 μM (Mouse microglia [1]): 0 ± 2%
Cc1noc(-c2ncn3c2[C@@H](C)N=C(c2ccccn2)c2cc(C4CC4)ccc2-3)n1 [GL-III-64]	75 ± 10	–	–	–	96 ± 10	75 ± 8	7	60	14	92	1490	inhibition at 50 µM (Mouse microglia [1]): 26 ± 10%; Ki (KOR (κ opioid receptor)): 2050 nM
C#Cc1ccc2c(c1)C(c1ccccc1F)=NCc1c(-c3nc(C)no3)ncn1-2 [GL-III-23]	90 ± 13	–	–	–	100 ± 2	65 ± 5	–	–	–	–	–	Inhibition of NO production (%) Mouse microglia 50 μM (Mouse microglia [1]): 28 ± 5%
C#Cc1ccc2c(c1)C(c1ccccn1)=NCc1c(-c3cnco3)ncn1-2 [KRM-II-81]	100 ± 12	–	–	–	100 ± 5	96 ± 11	–	–	–	86	294	MOR % (MOR (μ opioid receptor); [6]): 7%; Inhibition of NO production (%) Mouse microglia 50 μM (Mouse microglia [1]): 0 ± 1%; KOR % (KOR (κ opioid receptor); [7]): 46%; DOR % (DOR (δ opioid receptor)): 15%
C#Cc1ccc2c(c1)C(c1ccccc1F)=N[C@@H](C)c1c(-c3nc(C(C)C)no3)ncn1-2 [GL-I-81, (S)-5-(8-Ethynyl-6-(2-fluorophenyl)-4-methyl-4H-benzo[f]imidazo[1,5-a][1,4]diazepin-3-yl)-3-isopropyl-1,2,4-oxadiazole]	–	–	91 ± 7	–	94 ± 10	–	64	93	25	83	839	Ki (MOR (μ opioid receptor)): 2920 nM; inhibition at 10 µM (Mouse microglia [1]): 64 ± 9%; inhibition at 50 µM (Mouse microglia [1]): 87 ± 2%; Ki (KOR (κ opioid receptor)): 127 nM; inhibition at 10 µM (RAW macrophages [3]; Mus musculus, Macrophage, 24 h): 0%; inhibition at 50 µM (RAW macrophages [3]; Mus musculus, Macrophage, 24 h): 6 ± 2%
C#Cc1ccc2c(c1)C(c1ccccn1)=NCC(=O)N2 [GL-III-58]	100 ± 5	48 ± 4	100 ± 14	–	83 ± 4	89 ± 2	–	–	–	–	–	–

Reference: patent US20240279232A1, “USE OF SUBSTITUTED 5-(4-METHYL-6-PHENYL-4H-BENZO[F]IMIDAZO[1,5-A][1,4] DIAZEPIN-3-YL)-1,2,4-O[…] THE TREATMENT OF INFLAMMATORY CONDITIONS” (priority 2021, published 2024)
